Consider 3 compounds from patent US20220324835A1 (Nurix Therapeutics, Inc., priority 2018, published 2022).

The test system of one test is T-cells. Description: In vivo activity: CD25 expression on CD4+ or CD8+ T-cells of mice stimulated with anti-CD3 antibody. To be noted: 135 mpk PO BID, 2 μg anti-CD3 antibody, 24 hours. In short, it runs like this:
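C57BL/6 or BALB/c mice dosed with inhibitor (IV, IP, SC or PO, e.g. BID or TID), then stimulated with 2 μg anti-CD3 antibody. Plasma IL-2, IFNγ, TNFα at 8 h and CD25 on CD4+/CD8+ T-cells by flow cytometry at 24 h; fold change over vehicle plus anti-CD3, binned A–E.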

Another test has as its system T-cell. Nature of the test: IL-2 secretion from T-cells stimulated with anti-CD3 antibody alone (Biological Example 2). It is filed as cell-based. Particulars: 1 μM compound, primary human total T-cells, read-out: IL-2 secretion, Anti-CD3 stimulation, fold change over baseline.

For the compound `C[C@@H](c1cc2c(c(C(F)(F)F)c1)CN(c1cccc(C3(Cc4nncn4C)COC3)c1)C2=O)N1C[C@H]2C[C@H]2C1` [Compound 541a, 6-((1S)-1-(3-azabicyclo[3.1.0]hexan-3-yl)ethyl)-2-(3-(3-((4-methyl-4H-1,2,4-triazol-3-yl)methyl)oxetan-3-yl)phenyl)-4-(trifluoromethyl)isoindolin-1-one], in the test on T-cells, the “CD4+ T-cell % CD25+” value was “D (D indicates 1.00-1.50)” and the “CD8+ T-cell % CD25+” value is on record as “D (D indicates 1.00-1.50)”. Moreover, in the test with T-cell, the fold induction at 1 µM was more than 0.201.

Turning to `C[C@@H](c1cc2c(c(C(F)(F)F)c1)CN(c1cccc(C3(Cc4nncn4C)COC3)c1)C2=O)N1CCC(C)(F)CC1` [Example 553a, (S)-6-(1-(4-fluoro-4-methylpiperidin-1-yl)ethyl)-2-(3-(3-((4-methyl-4H-1,2,4-triazol-3-yl)methyl)oxetan-3-yl)phenyl)-4-(trifluoromethyl)isoindolin-1-one], in the test on T-cells, the “CD4+ T-cell % CD25+” value is “D (D indicates 1.00-1.50)” and the “CD8+ T-cell % CD25+” value is “D (D indicates 1.00-1.50)”. Also, in the test with T-cell, the fold induction at 1 µM is more than 0.201.

On to `C[C@H](c1cc2c(c(C(F)(F)F)c1)CN(c1cccc(C3(Cc4nncn4C)COC3)c1)C2=O)N1CCC(C)(F)CC1` [Example 553b, (R)-6-(1-(4-fluoro-4-methylpiperidin-1-yl)ethyl)-2-(3-(3-((4-methyl-4H-1,2,4-triazol-3-yl)methyl)oxetan-3-yl)phenyl)-4-(trifluoromethyl)isoindolin-1-one], for which, in the test on T-cells, the “CD4+ T-cell % CD25+” value is “A (A indicates >2.50)” and the “CD8+ T-cell % CD25+” value was “D (D indicates 1.00-1.50)”. The fold induction at 1 µM in the test with T-cell was more than 0.201.
